Results as given in PMC8920097, “Prediction of hERG inhibition of drug discovery compounds using biomimetic HPLC measurements” (ADMET & DMPK, 2021).
Where two headings read alike, the source gives them in different places.

Legend:
[1] = system: hERG channel; conditions: cited from earlier work
[2] = Charge character of the drugs at pH 7.4; format: physicochemical
[3] = Phospholipid binding at pH 7.4 on IAM PC.DD2 HPLC column; format: physicochemical; parameters: key to CHI IAM: approximates acetonitrile concentration (%) in mobile phase at elution
Protocol: The phospholipid-binding was measured using an IAM PC.DD2 column with dimensions of 100 x 4.6 mm (Regis Technologies Inc., Morton Grove, IL, USA). The gradient retention times were measured using a 50 mM ammonium acetate mobile phase with the pH adjusted to 7.4. The mobile phase flow rate was 1.5 mL/min. […] The cycle time was 6 min, plus an additional 1 min equilibration time was applied while the injector prepared for the next injection. The gradient retention times were calibrated with the acetophenone homologues for which the CHI IAM values have been established using isocratic measurements. […] The CHI Index on the IAM column (CHI IAM) approximates the acetonitrile concentration in the mobile phase when the compound elutes. […] The CHI IAM values have been converted to log k IAM values derived from the CHI IAM values using equation 1. It represents the equivalent value derived from several isocratic measurements with extrapolated log retention factors to 100 % aqueous mobile phase. The log k IAM values can be converted to log K (IAM) values and show linear relationships with the octanol/water partition coefficients.

[4] = system: alpha-1-acid-glycoprotein (AGP); assay: Protein binding on Chiralpak AGP HPLC column; conditions: pH 7.4, Chiralpak AGP
Protocol: The measurement of the biomimetic properties of the available drugs was conducted in our laboratories. Generic gradient HPLC methods were used to determine the chromatographic hydrophobicity Index (CHI) using mobile phases at three different pH values. The protein binding of the compounds was measured using immobilised human serum albumin (HSA), and alpha-1-acid-glycoprotein (AGP) stationary phases. The phospholipid-binding was measured using the immobilised artificial membrane (IAM) stationary phase. The aim was to establish relationships between the cardiotoxicity potential and the biomimetic binding properties of the drugs and to evaluate their predictive performance.

[5] = CHI lipophilicity by gradient reversed-phase HPLC (Gemini NX-C-18); conditions: for chromatographic logD: Gemini NX-C-18 reversed-phase HPLC column, pH 7.4; for chromatographic logP: reversed-phase HPLC, Gemini NX-C-18 column (50 x 3 mm, 5 µm)
Protocol: The Chromatographic Hydrophobicity Index (CHI) was measured using the compounds’ calibrated gradient retention times obtained from an Agilent 1100 HPLC fitted with a Gemini NX-C-18 column (Phenomenex Ltd Macclesfield, UK) with dimensions of 50 x 3 mm and 5 μm particle size. […] The mobile phase B was 100 % acetonitrile. […] An acetonitrile linear gradient was used from 0 to 100 %. […] The retention time values for a standard set of compounds listed in Table 1 were used to convert the drug retention times to CHI values.

[6] = pH 7.4, derived from CHI IAM by equation 1
[7] = literature values, mean where several reported, molar

CN(C)CCCC1(c2ccc(F)cc2)OCc2cc(C#N)ccc21 (stereo not shown) [Citalopram]
hERG pIC50 [1]: 5.27
Charge [2]: Basic

CN1CCC[C@@H]1CCO[C@](C)(c1ccccc1)c1ccc(Cl)cc1 [Clemastine]
log k IAM [3, 6]: 3.19
log k AGP [4]: 1.18
Charge [2]: Basic
chromatographic logD [5]: 3.18
chromatographic logP [5]: 3.18

CC[C@H]1OC(=O)[C@H](C)[C@@H](O[C@H]2C[C@@](C)(OC)[C@@H](O)[C@H](C)O2)[C@H](C)[C@@H](O[C@@H]2O[C@H](C)C[C@H](N(C)C)[C@H]2O)[C@](C)(O)C[C@@H](C)C(=O)[C@H](C)[C@@H](O)[C@]1(C)O [Erythromycin]
CHI IAM ([3]; pH 7.4): 38.79
log k IAM [3, 6]: 2.20
Charge [2]: Basic
chromatographic logD [5]: 1.31
chromatographic logP [5]: 2.6

CC(C)(C)NC(=O)[C@@H]1C[C@@H]2CCCC[C@@H]2CN1C[C@@H](O)[C@H](Cc1ccccc1)NC(=O)[C@H](CC(N)=O)NC(=O)c1ccc2ccccc2n1 [Saquinavir]
CHI IAM ([3]; pH 7.4): 42.17
log k IAM [3, 6]: 2.36
hERG pIC50 [1, 7]: 5.82
log k AGP [4]: 1.59
Charge [2]: Weak Base
chromatographic logD [5]: 3.31
chromatographic logP [5]: 3.39

O=c1n(CCCN2CCN(c3cccc(Cl)c3)CC2)nc2ccccn12 [Trazodone]
log k IAM [3, 6]: 1.93
hERG pIC50 [1, 7]: 5.30
log k AGP [4]: 0.46
Charge [2]: Weak Base
chromatographic logD [5]: 2.51
chromatographic logP [5]: 2.59

CCN(CC)CCCC(C)Nc1ccnc2cc(Cl)ccc12 (stereo not shown) [Chloroquine]
hERG pIC50 [1, 7]: 5.03

CCn1cc(C(=O)O)c(=O)c2cc(F)c(N3CCNC(C)C3)c(F)c21 (stereo not shown) [Lomefloxacin]
CHI IAM ([3]; pH 7.4): 37.89
log k IAM [3, 6]: 2.16
chromatographic logD [5]: -0.14
chromatographic logP [5]: -0.14

CC(C)NCC(O)COc1ccc(CC(N)=O)cc1 (stereo not shown) [Atenolol]
log k IAM [3, 6]: 1.14
Charge [2]: Basic

Cc1ccc(O)c([C@H](CCN(C(C)C)C(C)C)c2ccccc2)c1 [Tolterodine]
log k IAM [3, 6]: 2.83
chromatographic logD [5]: 2
chromatographic logP [5]: 4.95

O=C(O)COCCN1CCN(C(c2ccccc2)c2ccc(Cl)cc2)CC1 (stereo not shown) [Cetirizine]
log k IAM [3, 6]: 2.29

CC(C)(C)c1ccc(C(=O)CCCN2CCC(OC(c3ccccc3)c3ccccc3)CC2)cc1 [Ebastine]
log k IAM [3, 6]: 3.12
log k AGP [4]: 1.34
Charge [2]: Basic
chromatographic logD [5]: 4.96
chromatographic logP [5]: 6.54

CN1CCc2cccc3c2[C@H]1Cc1ccc(O)c(O)c1-3 [Apomorphine]
log k IAM [3, 6]: 2.24
chromatographic logD [5]: 1.17
chromatographic logP [5]: 2.66

Cc1nc2n(c(=O)c1CCN1CCC(c3noc4cc(F)ccc34)CC1)CCCC2 [Risperidone]
log k IAM [3, 6]: 2.09
Charge [2]: Weak Base

O=C(O)c1cn(C2CC2)c2cc(N3CCNCC3)c(F)cc2c1=O [Ciprofloxacin]
log k IAM [3, 6]: 1.59
Charge [2]: Zwitterionic

CN(C)CCCN1c2ccccc2CCc2ccccc21 [Imipramine]
log k AGP [4]: 0.96

COc1ccc([C@@H]2Sc3ccccc3N(CCN(C)C)C(=O)[C@@H]2OC(C)=O)cc1 [Diltiazem]
CHI IAM ([3]; pH 7.4): 41.95
log k IAM [3, 6]: 2.35
Charge [2]: Basic
chromatographic logD [5]: 2.76
chromatographic logP [5]: 3.12

CC(=O)N1CCN(c2ccc(OCC3COC(Cn4ccnc4)(c4ccc(Cl)cc4Cl)O3)cc2)CC1 (stereo not shown) [Ketoconazole]
CHI IAM ([3]; pH 7.4): 37.86
log k IAM [3, 6]: 2.16

CCN(CC)CC(=O)Nc1c(C)cccc1C [Lidocaine]
log k IAM [3, 6]: 1.91
Charge [2]: Weak Base

CN(C)CCOC(c1ccccc1)c1ccccc1 [Diphenhydramine]
log k IAM [3, 6]: 2.06
Charge [2]: Basic

CCOC(=O)N1CCC(=C2c3ccc(Cl)cc3CCc3cccnc32)CC1 [Loratadine]
log k IAM [3, 6]: 2.46
Charge [2]: Weak Base

Cc1cc2c(s1)Nc1ccccc1N=C2N1CCN(C)CC1 [Olanzapine]
log k IAM ([3]; pH 7.4): 2.71
Charge [2]: Weak Base

OCCOCCN1CCN(C2=Nc3ccccc3Sc3ccccc32)CC1 [Quetiapine]
chromatographic logD [5]: 2.55
chromatographic logP [5]: 2.69

CC[C@H](C)C(=O)O[C@H]1C[C@@H](C)C=C2C=C[C@H](C)[C@H](CC[C@@H]3C[C@@H](O)CC(=O)O3)[C@H]21 [Lovastatin]
CHI IAM ([3]; pH 7.4): 44.38
log k IAM [3, 6]: 2.46
chromatographic logD [5]: 4.09

O=C(O[C@@H]1C[C@@H]2C[C@H]3C[C@H](C1)N2CC3=O)c1c[nH]c2ccccc12 [Dolasetron]
log k IAM [3, 6]: 1.95
Charge [2]: Weak Base
chromatographic logD [5]: 1.46
chromatographic logP [5]: 1.46

CCCc1nn(C)c2c(=O)[nH]c(-c3cc(S(=O)(=O)N4CCN(C)CC4)ccc3OCC)nc12 [Sildenafil]
CHI IAM ([3]; pH 7.4): 35.00
log k IAM [3, 6]: 2.03
Charge [2]: Weak Base
chromatographic logD [5]: 2.59
chromatographic logP [5]: 2.62

CN(C)CCC=C1c2ccccc2CCc2ccccc21 [Amitriptyline]
log k IAM [3, 6]: 2.96
Charge [2]: Basic
chromatographic logD [5]: 2.65
chromatographic logP [5]: 5.21

Prazosin
hERG pIC50 [1, 7]: 5.22

Cc1cc(NS(=O)(=O)c2ccc(N)cc2)no1 [Sulfamethoxazole]
log k IAM [3, 6]: 1.01

CCN(CC)CCNC(=O)c1ccc(N)cc1 [Procainamide]
log k IAM [3, 6]: 1.29
Charge [2]: Basic
chromatographic logD [5]: -0.59
chromatographic logP [5]: 0.95

CNCCC(Oc1ccc(C(F)(F)F)cc1)c1ccccc1 (stereo not shown) [Fluoxetine]
hERG pIC50 [1, 7]: 5.73

CSc1ccc2c(c1)N(CCC1CCCCN1C)c1ccccc1S2 (stereo not shown) [Thioridazine]
log k IAM [3, 6]: 3.65
chromatographic logD [5]: 3.02
chromatographic logP [5]: 5.46

CCC1=C(C)CN(C(=O)NCCc2ccc(S(=O)(=O)NC(=O)N[C@H]3CC[C@H](C)CC3)cc2)C1=O [Glimepiride]
CHI IAM ([3]; pH 7.4): 30.76
log k IAM [3, 6]: 1.83
hERG pIC50 [1]: 4.13
log k AGP [4]: 0.40
chromatographic logD [5]: 2.42
chromatographic logP [5]: 3.25

CCOC(=O)C1=C(C)NC(C)=C(C(=O)OC)C1c1cccc([N+](=O)[O-])c1 (stereo not shown) [Nitrendipine]
hERG pIC50 [1, 7]: 5.10
log k AGP [4]: 0.69
Charge [2]: Neutral
chromatographic logD [5]: 3.15
chromatographic logP [5]: 3.19

C=C[C@H]1C[N@@]2CC[C@H]1C[C@@H]2[C@@H](O)c1ccnc2ccc(OC)cc12 [Quinidine]
log k IAM [3, 6]: 2.71
hERG pIC50 [1]: 5.51
log k AGP [4]: 0.68
Charge [2]: Basic

CC(C)c1nc(CN(C)C(=O)N[C@H](C(=O)N[C@@H](Cc2ccccc2)C[C@H](O)[C@H](Cc2ccccc2)NC(=O)OCc2cncs2)C(C)C)cs1 [Ritonavir]
CHI IAM ([3]; pH 7.4): 38.64
log k IAM [3, 6]: 2.2
log k AGP [4]: 0.64
Charge [2]: Neutral
chromatographic logD [5]: 3.25
chromatographic logP [5]: 3.41

CNCCCN1c2ccccc2CCc2ccccc21 [Desipramine]
hERG pIC50 [1, 7]: 5.36
log k AGP [4]: 0.94
Charge [2]: Basic

COc1ccc(Cl)cc1C(=O)NCCc1ccc(S(=O)(=O)NC(=O)NC2CCCCC2)cc1 [Glibenclamide]
log k IAM [3, 6]: 1.93
Charge [2]: Acidic
chromatographic logD [5]: 2.07
chromatographic logP [5]: 3.17

Nicotine
hERG pIC50 [1]: 3.61
